Data taken from patent US6169181A, “Compounds useful to treat retroviral infections” (Pharmacia & Upjohn Company, priority 1998, dated 2001).
“And” between values parts separate entries of the source, which are not always exact repeats. Identical values can stand only once. Like-named read-outs stand apart in the source and are kept apart here.

How the values were obtained:
HIV-1 protease [1] = molecular target: T1, HIV-1 protease (Human immunodeficiency virus type 1 group M subtype B, UniProt P04585); assay: biochemical
Procedure: (§1) The HIV protease screening assay is based on fluorescently labeled substrate which can be resolved from nonlabeled cleavage product using special beads coated with streptavidin. The substrate is biotinylated at the amino terminal arginine and fluorescently labeled with fluorescein isothiocynate (FITC) at the carboxyl terminal lysine. This assay has been employed to detect novel, nonpeptidic inhibitors of HIV-1 protease. Substrate (20 μM of 0.2 μM), sample (10 μl of desired concentraion), and enzyme (10 μl of 0.1 μM) are added to a 96 well pandex plate. The assay is run in 0.1 M sodium acetate buffer at pH 5.5 in the presence of 1.0 M sodium chloride and 0.05% NP-40 with incubated in the dark for one hour at room temperature. Strepavidin coated polystyrene beads {40 μl of 0.1% (w/v)} are added and the plate is incubated in the dark for an additional half hour. The labeled cleavage product is separated from the unreacted substrate via filtration and is read on the Idexx screen machine. The data are analyzed by appropriate computer algorithms to ascertain percent inhibition values.

HIV-1 protease [2] = molecular target: T1, HIV-1 protease; assay: biochemical; conditions: read-out: HIV Protease FITC Assay Ki
Procedure: as §1, with “This assay has been employed to detect novel, nonpeptidic inhibitors of HIV-1 protease.” left out
Determination of Ki values utilizes the same materials and equipment employed for percent inhibition studies. Two-fold serial dilutions are made for a given inhibitor from 2, 3 or 4 starting concentrations with a total of 24, 36 or 48 individual inhibitor concentrations. These dilutions are performed utilizing the BioMek robotics system. The assay consists of 10 μL of 40 nM HIV-1 protease, 10 μL of the various inhibitor concentrations, and 20 μL of 200 μM substrate (40 μL total). The reaction is allowed to proceed for 90 min at room temperature, terminated with 40 μL of avidin beads and processed (supra vide). An inhibitor with a known K; is run in parallel to verify the validity of the assay. The data is processed utilizing a computer program employing a nonlinear least square analysis of the data to generate the Ki values.

[3] = Table II, enzyme HIV-1, DOSE 0.123 (unit not given)
[4] = Table II, enzyme HIV-1, DOSE 0.370 (unit not given)
[5] = Table II, enzyme HIV-1, DOSE 1.100 (unit not given)
[6] = Table II, enzyme HIV-1, DOSE 3.300 (unit not given)
[7] = Table II, enzyme HIV-1, DOSE 10.000 (unit not given)
[8] = Table II, enzyme HIV-1, DOSE 30.000 (unit not given)
[9] = Table I, Dose 0.123 μM, read-out: Protease % Inhib
[10] = Table I, Dose 0.370 μM, read-out: Protease % Inhib
[11] = Table I, Dose 1.100 μM, read-out: Protease % Inhib
[12] = Table I, Dose 3.300 μM, read-out: Protease % Inhib
[13] = Table I, Dose 10.000 μM, read-out: Protease % Inhib
[14] = Table I, Dose 30.000 μM, read-out: Protease % Inhib

Structure (SMILES) | inhibition at 30 µM (HIV-1 protease [1]; [14]) [%] | inhibition at 0.123 µM (HIV-1 protease [1]; [9]) [%] | inhibition at 0.37 µM (HIV-1 protease [1]; [10]) [%] | inhibition at 1.1 µM (HIV-1 protease [1]; [11]) [%] | inhibition at 3.3 µM (HIV-1 protease [1]; [12]) [%] | inhibition at 10 µM (HIV-1 protease [1]; [13]) [%] | also measured
CCC(C1=C(O)CC(CC(C)C)(CC(C)C)OC1=O)c1cccc(NS(=O)(=O)c2ccc(C#N)cn2)c1 (racemic) [Example 304, 5-Cyano-N-[3-(1-[5,6-dihydro-6,6-diisobutyl-4-hydroxy-2-oxo-2H-pyran-3-yl]propyl)phenyl]-2-pyridinesulfonamide] |  |  |  |  |  |  | PROTEASE % INHIB. (HIV-1 protease [1]; [3]): 92.01%; PROTEASE % INHIB. (HIV-1 protease [1]; [4]): 93.28%; PROTEASE % INHIB. (HIV-1 protease [1]; [5]): 96.47%; PROTEASE % INHIB. (HIV-1 protease [1]; [6]): 100.47%; PROTEASE % INHIB. (HIV-1 protease [1]; [7]): 107.61%; PROTEASE % INHIB. (HIV-1 protease [1]; [8]): 79.68%
CC[C@H](Cc1ccccc1)c1cc(O)c(C(c2cccc(NS(=O)(=O)c3ccc(C#N)cc3)c2)C2CC2)c(=O)o1 (single isomer, unassigned) [Example 149, N-(3-(R or S)-{Cyclopropyl-[6-(1-(R)-ethylphenethyl)-4-hydroxy-2-oxo-2H-pyran-3-yl]-methyl}-phenyl)-4-cyanobenzenesulfonamide] |  |  |  |  |  |  | PROTEASE % INHIB. (HIV-1 protease [1]; Table I, Dose 0.123 μM): 80.51%; PROTEASE % INHIB. (HIV-1 protease [1]; Table I, Dose 0.370 μM): 87.52%; PROTEASE % INHIB. (HIV-1 protease [1]; Table I, Dose 1.100 μM): 96.32%; PROTEASE % INHIB. (HIV-1 protease [1]; Table I, Dose 3.300 μM): 92.86%; PROTEASE % INHIB. (HIV-1 protease [1]; Table I, Dose 10.000 μM): 97.12%; PROTEASE % INHIB. (HIV-1 protease [1]; Table I, Dose 30.000 μM): 95.99%
Cn1cnc(S(=O)(=O)Nc2cccc(C(c3c(O)cc(C(CC4CC4)CC4CC4)oc3=O)C3CC3)c2)c1 (stereo not shown) [98 First Compound] |  |  |  |  |  |  | Ki (HIV-1 protease [2]): 0.74 nM and 0.8 nM
CCCCCC1(CCCCC)CC(O)=C(C(CC)c2cccc(NS(=O)(=O)c3cn(C)cn3)c2)C(=O)O1 (stereo not shown) [Example 63, N-[3-[1-(4-Hydroxy-2-oxo-6,6-dipentyl-5,6-dihydro-2H-pyran-3-yl)-propyl]-phenyl]-1-methyl-1H-imidazole-4-sulfonamide] |  |  |  |  |  |  | inhibition at 0.123 µM (HIV-1 protease [1]; read-out: Protease % Inhib): 68.9%; inhibition at 0.37 µM (HIV-1 protease [1]; read-out: Protease % Inhib): 79.6%; inhibition at 1.1 µM (HIV-1 protease [1]; read-out: Protease % Inhib): 88.6%; inhibition at 3.3 µM (HIV-1 protease [1]; read-out: Protease % Inhib): 87.4%; inhibition at 10 µM (HIV-1 protease [1]; read-out: Protease % Inhib): 83.6%; inhibition at 30 µM (HIV-1 protease [1]; read-out: Protease % Inhib): 78.8%
CCCCCC1(CCCCC)CC(O)=C(C(CC)c2cccc(NS(=O)(=O)c3ccc(C#N)cc3)c2)C(=O)O1 (stereo not shown) [Example 64, 4-Cyano-N-[3-[1-(4-Hydroxy-2-oxo-6,6-dipentyl-5,6-dihydro-2H-pyran-3-yl)-propyl]-phenyl]-benzenesulfonamide] | 84.4 | 27.9 | 50.8 | 75.6 | 80.9 | 82 | 
N#Cc1ccc(S(=O)(=O)Nc2cccc(C(c3c(O)cc(C(CC4CC4)CC4CC4)oc3=O)C3CC3)c2)cc1 (stereo not shown) [Example 95, 4-Cyano-N-(3-{cyclopropyl-[6-(2-cyclopropyl-1-cyclopropylmethyl-ethyl)-4-hydroxy-2-oxo-2H-pyran-3-yl]-methyl}-phenyl)-benzenesulfonamide] | 113 | 91.2 | 102 | 106 | 113 | 110 | 
O=c1oc(C(CC2CC2)CC2CC2)cc(O)c1C(c1cccc(NS(=O)(=O)c2cccc3cccnc23)c1)C1CC1 (stereo not shown) [Example 96, N-(3-{Cyclopropyl-[6-(2-cyclopropyl-1-cyclopropylmethyl-ethyl)-4-hydroxy-2-oxo-2H-pyran-3-yl]-methyl}-phenyl)-8-quinolinesulfonamide] | 109 | 94.2 | 119 | 122 | 111 | 111 | 
COCCOCCCc1cc(O)c(C(c2cccc(NS(=O)(=O)c3cn(C)cn3)c2)C2CC2)c(=O)o1 (stereo not shown) [Example 104, N-(3-{Cyclopropyl-[4-hydroxy-6-(3-{2-methoxy-ethoxy}-propyl)-2-oxo-2H-pyran-3-yl]-methyl}-phenyl)-1-methyl-1H-imidazole-4-sulfonamide] | 109 | < 10 | 61.7 | 81.8 | 93.3 | 96.4 | 
CCC(CCOCCOC)c1cc(O)c(C(c2cccc(NS(=O)(=O)c3cn(C)cn3)c2)C2CC2)c(=O)o1 (stereo not shown) [Example 105, N-(3-{Cyclopropyl-[6-(1-ethyl-3-{2-methoxy-ethoxy}-propyl)-4-hydroxy-2-oxo-2H-pyran-3-yl]-methyl}-phenyl)-1-methyl-1H-imidazole-4-sulfonamide] | 111 | 101 | 115 | 107 | 111 | 111 | 
CCC(CCN=[N+]=[N-])c1cc(O)c(C(c2cccc(NS(=O)(=O)c3cn(C)cn3)c2)C2CC2)c(=O)o1 (stereo not shown) [Example 109, N-(3-{[6-(3-Azido-1-ethyl-propyl)-4-hydroxy-2-oxo-2H-pyran-3-yl]-cyclopropyl-methyl}-phenyl)-1-methyl-1H-imidazole-4-sulfonamide] | 109 | 105 | 99.3 | 104 | 101 | 109 | 
CCC(CC1CCOCC1)c1cc(O)c(C(c2cccc(NS(=O)(=O)c3cn(C)cn3)c2)C2CC2)c(=O)o1 (stereo not shown) [Example 135, N-(3-{Cyclopropyl-[6-(1-(tetrahydropyran-4-ylmethyl)-propyl)-4-hydroxy-2-oxo-2H-pyran-3-yl]-methyl}-phenyl)-1-methyl-1H-imidazole-4-sulfonamide] |  | 33.2 | 84.5 | 99.1 | 96.9 | 101 | inhibition at 30.9 µM (HIV-1 protease [1]; read-out: Protease % Inhib): 102%
CCCC1(CCc2ccccc2)CC(O)=C(C(CC)c2cccc(NS(=O)(=O)c3ccc(C#N)cn3)c2)C(=O)O1 (stereo not shown) [Example 263, N-[3-{1-(4-Hydroxy-5,6-dihydro-2-oxo-6-phenethyl-6-propyl-2H-pyran-3-yl)propyl}phenyl]-5-cyanopyridine-2-sulfonamide] |  |  |  |  |  |  | inhibition at 0.123 µM (HIV-1 protease [1]; read-out: Protease % Inhib): 98.1%; inhibition at 0.37 µM (HIV-1 protease [1]; read-out: Protease % Inhib): 99%; inhibition at 1.1 µM (HIV-1 protease [1]; read-out: Protease % Inhib): 99.1%; inhibition at 3.3 µM (HIV-1 protease [1]; read-out: Protease % Inhib): 98.1%; inhibition at 10 µM (HIV-1 protease [1]; read-out: Protease % Inhib): 96.2%; inhibition at 30 µM (HIV-1 protease [1]; read-out: Protease % Inhib): 88.2%
CCCC1(CCc2ccccc2)CC(O)=C(C(c2cccc(NS(=O)(=O)c3ccc(C#N)cn3)c2)C2CC2)C(=O)O1 (stereo not shown) [Example 311] |  |  |  |  |  |  | PROTEASE % INHIB. (HIV-1 protease [1]; [3]): 86.51%; PROTEASE % INHIB. (HIV-1 protease [1]; [4]): 91.49%; PROTEASE % INHIB. (HIV-1 protease [1]; [5]): 101.8%; PROTEASE % INHIB. (HIV-1 protease [1]; [6]): 96.5%; PROTEASE % INHIB. (HIV-1 protease [1]; [7]): 93.77%; PROTEASE % INHIB. (HIV-1 protease [1]; [8]): 77.63%

The next lines start with results.

inhibition at 30 µM (HIV-1 protease [1]; [14]) [%] | Structure (SMILES) | inhibition at 0.123 µM (HIV-1 protease [1]; [9]) [%] | inhibition at 0.37 µM (HIV-1 protease [1]; [10]) [%] | inhibition at 1.1 µM (HIV-1 protease [1]; [11]) [%] | inhibition at 3.3 µM (HIV-1 protease [1]; [12]) [%] | inhibition at 10 µM (HIV-1 protease [1]; [13]) [%] | also measured
85.2 | CN(c1cccc(C(c2c(O)c3c(oc2=O)CCCCCC3)C2CC2)c1)S(=O)(=O)c1ccccc1 (stereo not shown) [Example 194, N-methyl-N-[3-[cyclopropyl(5,6,7,8,9,10-hexahydro-4-hydroxy-2-oxo-2H-cycloocta[b]pyran-3-yl)methyl]phenyl]-benzenesulfonamide] | < 10 | 20 | 53.9 | 75.2 | 85.5 | 
98.5 | CCCC1(CCc2ccc(F)cc2)CC(O)=C(C(c2cccc(NS(=O)(=O)c3ccc(C#N)cn3)c2)C(C)(C)C)C(=O)O1 (stereo not shown) [Example 253, N-[3-{1-(4-Hydroxy-5,6-dihydro-2-oxo-6-(2-(4-fluorophenyl)ethyl)-6-propyl-2H-pyran-3-yl)-2,2-dimethylpropyl}phenyl]-5-cyanopyridine-2-sulfonamide] | 94 | 96.8 | 97.6 | 95.9 | 97 | 
89.2 | CCCC1(CCC)CC(O)=C(C(CC)c2cccc(NS(=O)(=O)c3ccc(C#N)cn3)c2)C(=O)O1 (stereo not shown) [Example 262] | 91.8 | 96.6 | 97.1 | 95.4 | 94.2 | 
